Experimental data published in ChEMBL document CHEMBL2029328, “Identification and structure-activity relationships of a novel series of estrogen receptor ligands based on 7-thiabicyclo[2.2.1]hept-2-ene-7-oxide” (J Med Chem, 2012).

Legend:
[1] = target: T1, Estrogen receptor (Homo sapiens) (UniProt P03372); assay: Agonist activity at human ERalpha expressed in HepG2 cells up to 10^-5 M after 24 hrs by luciferase reporter gene assay relative to E2; assay type: functional, cell-based
T1 sequence (whole entry): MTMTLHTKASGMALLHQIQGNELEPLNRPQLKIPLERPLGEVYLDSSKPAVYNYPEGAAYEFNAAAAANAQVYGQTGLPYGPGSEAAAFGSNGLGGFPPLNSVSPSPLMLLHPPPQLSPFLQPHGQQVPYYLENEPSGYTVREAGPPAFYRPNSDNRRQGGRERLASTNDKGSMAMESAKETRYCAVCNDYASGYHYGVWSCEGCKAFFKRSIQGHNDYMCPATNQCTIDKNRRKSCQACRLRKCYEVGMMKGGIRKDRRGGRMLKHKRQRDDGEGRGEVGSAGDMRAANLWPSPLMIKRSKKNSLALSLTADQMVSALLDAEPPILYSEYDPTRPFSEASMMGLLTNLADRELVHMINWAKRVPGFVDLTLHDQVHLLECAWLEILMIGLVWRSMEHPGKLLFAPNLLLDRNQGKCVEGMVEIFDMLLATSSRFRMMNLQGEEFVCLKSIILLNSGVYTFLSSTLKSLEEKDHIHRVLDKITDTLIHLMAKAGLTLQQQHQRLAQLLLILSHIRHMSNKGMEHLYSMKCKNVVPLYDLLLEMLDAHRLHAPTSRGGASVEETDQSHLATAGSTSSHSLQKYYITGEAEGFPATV

Estrogen receptor beta [2] = target: T2, Estrogen receptor beta (Homo sapiens, UniProt Q92731); assay: Displacement of [3H]estradiol from human ERbeta after 18 to 24 hrs
Estrogen receptor beta [3] = target: T2, Estrogen receptor beta; assay: Agonist activity at human ERbeta expressed in HepG2 cells up to 10^-5 M after 24 hrs by luciferase reporter gene assay relative to E2; assay type: functional, cell-based
[4] = target: T1, Estrogen receptor (Homo sapiens); assay: Displacement of [3H]estradiol from human ERalpha after 18 to 24 hrs
Estrogen receptor = target: T3, Estrogen receptor (Homo sapiens, UniProt P03372)
T3 sequence (P03372 whole entry): T1 sequence (whole entry)
Description: Agonist activity at human ERalpha expressed in HepG2 cells after 24 hrs by luciferase reporter gene assay

Estrogen receptor beta [5] = target: T2, Estrogen receptor beta
Description: Agonist activity at human ERbeta expressed in HepG2 cells after 24 hrs by luciferase reporter gene assay

T2 sequence (Q92731 whole entry): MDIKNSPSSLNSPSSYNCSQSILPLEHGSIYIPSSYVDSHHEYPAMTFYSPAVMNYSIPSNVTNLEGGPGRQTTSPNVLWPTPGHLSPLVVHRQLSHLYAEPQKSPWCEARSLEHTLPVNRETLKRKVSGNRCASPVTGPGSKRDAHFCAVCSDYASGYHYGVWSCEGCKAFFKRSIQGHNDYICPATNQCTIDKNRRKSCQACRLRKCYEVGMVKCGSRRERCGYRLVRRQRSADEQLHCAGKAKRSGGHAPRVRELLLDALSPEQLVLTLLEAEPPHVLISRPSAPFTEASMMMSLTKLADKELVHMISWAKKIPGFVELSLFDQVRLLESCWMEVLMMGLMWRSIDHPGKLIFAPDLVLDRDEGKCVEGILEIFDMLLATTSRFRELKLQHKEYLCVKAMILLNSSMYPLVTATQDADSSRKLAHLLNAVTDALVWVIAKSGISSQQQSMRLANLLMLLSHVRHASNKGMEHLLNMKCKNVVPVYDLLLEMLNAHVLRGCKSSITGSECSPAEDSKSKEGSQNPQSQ

Compound `CCOC(=O)[C@@H]1[C@H](C(=O)OCC)[C@@H]2C(c3ccc(O)c(C)c3)=C(c3ccc(O)c(C)c3)[C@H]1[S+]2[O-]` (some centres undefined) has an Activity [1] of 22%, an RBA (Estrogen receptor beta [2]) of 0.019% and an Activity (Estrogen receptor beta [3]) of 3.6%. The RBA [4] was 0.026%.

`CCOC(=O)[C@@H]1[C@H](C(=O)OCC)[C@@H]2C(c3ccc(O)cc3)=C(c3ccc(O)cc3)[C@H]1[S+]2[O-]` (some centres undefined) was tested, and the Activity [1] was 55%, the RBA (Estrogen receptor beta [2]) was 0.048% and the Activity (Estrogen receptor beta [3]) was 27%. It also gave an RBA [4] of 0.022%.

Work on `O=C1[C@@H]2[C@H](C(=O)N1c1ccccc1)[C@@H]1C(c3ccc(O)cc3)=C(c3ccc(O)cc3)[C@H]2[S+]1[O-]` (mixture of isomers) yielded an Activity [1] of 31%, an RBA (Estrogen receptor beta [2]) of 0.013% and an Activity (Estrogen receptor beta [3]) of 24%. It also gave an RBA [4] of 0.017% and an EC50 (Estrogen receptor) of 7100 nM.

Compound `Cc1cc(O)ccc1C1=C(c2ccc(O)cc2C)[C@H]2[C@H]3C(=O)N(c4ccccc4)C(=O)[C@H]3[C@@H]1[S+]2[O-]` (mixture of isomers) has an Activity [1] of 65%, an RBA (Estrogen receptor beta [2]) of 0.014% and an EC50 (Estrogen receptor beta [5]) of 800 nM. It also gave an Activity (Estrogen receptor beta [3]) of 82%, an RBA [4] of 0.016% and an EC50 (Estrogen receptor) of 150 nM.

`Cc1cc(C2=C(c3ccc(O)c(C)c3)[C@H]3[C@H]4C(=O)N(c5ccccc5)C(=O)[C@H]4[C@@H]2[S+]3[O-])ccc1O` (mixture of isomers) gave an Activity [1] of 29%, an RBA (Estrogen receptor beta [2]) of 0.007% and an Activity (Estrogen receptor beta [3]) of 3.4%. The RBA [4] was 0.009%.

`Cc1cc(C2=C(c3ccc(O)c(C)c3)[C@H]3[C@@H](S(=O)(=O)Oc4cccc5ccccc45)C[C@@H]2[S+]3[O-])ccc1O` (relative stereo) was tested, and the Activity [1] was 42%, the RBA (Estrogen receptor beta [2]) was 0.019% and the Activity (Estrogen receptor beta [3]) was 10%. For the same compound, the RBA [4] was 0.236% and the EC50 (Estrogen receptor) was 770 nM.

In the case of `O=S(=O)(Oc1ccccc1)[C@H]1C[C@H]2C(c3ccc(O)cc3)=C(c3ccc(O)cc3)[C@@H]1[S+]2[O-]` (relative stereo), the Activity [1] is reported as 85%, the RBA (Estrogen receptor beta [2]) is reported as 0.11% and the Activity (Estrogen receptor beta [3]) is reported as 3.4%. It also gave an RBA [4] of 0.956% and an EC50 (Estrogen receptor) of 670 nM.

`O=S(=O)(Oc1ccc(O)cc1)[C@H]1C[C@H]2C(c3ccc(O)cc3)=C(c3ccc(O)cc3)[C@@H]1[S+]2[O-]` (relative stereo) gave an Activity [1] of 48%, an RBA (Estrogen receptor beta [2]) of 0.071% and an Activity (Estrogen receptor beta [3]) of 10%. For the same compound, the RBA [4] was 0.077% and the EC50 (Estrogen receptor) was 1100 nM.

For `Cc1cc(O)ccc1C1=C(c2ccc(O)cc2C)[C@H]2[C@@H](S(=O)(=O)Oc3ccccc3)C[C@@H]1[S+]2[O-]` (relative stereo), the Activity [1] was 62%, the RBA (Estrogen receptor beta [2]) was 0.348% and the Activity (Estrogen receptor beta [3]) was 66%. The RBA [4] was 8.11% and the EC50 (Estrogen receptor) was 0.14 nM.

Work on `COc1ccc(OS(=O)(=O)[C@H]2C[C@H]3C(c4ccc(O)cc4C)=C(c4ccc(O)cc4C)[C@@H]2[S+]3[O-])cc1` (relative stereo) yielded an Activity [1] of 76%, an RBA (Estrogen receptor beta [2]) of 0.091% and an Activity (Estrogen receptor beta [3]) of 32%. The RBA [4] was 0.741% and the EC50 (Estrogen receptor) was 210 nM.

With `Cc1cc(O)ccc1C1=C(c2ccc(O)cc2C)[C@H]2[C@@H](S(=O)(=O)Oc3ccccc3F)C[C@@H]1[S+]2[O-]` (relative stereo) the Activity [1] was 56%, the RBA (Estrogen receptor beta [2]) was 0.138% and the Activity (Estrogen receptor beta [3]) was 54%. The RBA [4] was 3.53% and the EC50 (Estrogen receptor) was 2.2 nM.

`Cc1cc(O)ccc1C1=C(c2ccc(O)cc2C)[C@H]2[C@@H](S(=O)(=O)Oc3ccccc3Cl)C[C@@H]1[S+]2[O-]` (relative stereo) showed an Activity [1] of 73%, an RBA (Estrogen receptor beta [2]) of 0.227% and an Activity (Estrogen receptor beta [3]) of 46%. It also gave an RBA [4] of 2.49% and an EC50 (Estrogen receptor) of 2.8 nM.

For `Cc1cc(O)ccc1C1=C(c2ccc(O)cc2C)[C@H]2[C@@H](S(=O)(=O)Oc3ccccc3Br)C[C@@H]1[S+]2[O-]` (relative stereo), the Activity [1] was 67%, the RBA (Estrogen receptor beta [2]) was 0.07% and the Activity (Estrogen receptor beta [3]) was 21%. It also gave an RBA [4] of 2.21% and an EC50 (Estrogen receptor) of 14 nM.

`Cc1cc(O)ccc1C1=C(c2ccc(O)cc2C)[C@H]2[C@@H](S(=O)(=O)Oc3ccc(F)cc3)C[C@@H]1[S+]2[O-]` (relative stereo) gave an Activity [1] of 74%, an RBA (Estrogen receptor beta [2]) of 0.08% and an Activity (Estrogen receptor beta [3]) of 45%. The RBA [4] was 2.18% and the EC50 (Estrogen receptor) was 200 nM.

`Cc1cc(O)ccc1C1=C(c2ccc(O)cc2C)[C@H]2[C@@H](S(=O)(=O)Oc3ccc(Cl)cc3)C[C@@H]1[S+]2[O-]` (relative stereo) showed an Activity [1] of 67%, an RBA (Estrogen receptor beta [2]) of 0.083% and an Activity (Estrogen receptor beta [3]) of 50%. It also gave an RBA [4] of 2.13% and an EC50 (Estrogen receptor) of 110 nM.

For `Cc1cc(O)ccc1C1=C(c2ccc(O)cc2C)[C@H]2[C@@H](S(=O)(=O)Oc3ccc(Br)cc3)C[C@@H]1[S+]2[O-]` (relative stereo), the Activity [1] was 71%, the RBA (Estrogen receptor beta [2]) was 0.297% and the Activity (Estrogen receptor beta [3]) was 100%. For the same compound, the RBA [4] was 3.37% and the EC50 (Estrogen receptor) was 110 nM.

With `Cc1cc(O)ccc1C1=C(c2ccc(O)cc2C)[C@H]2[C@@H](S(=O)(=O)Oc3cccc4ccccc34)C[C@@H]1[S+]2[O-]` (relative stereo) the Activity [1] was 59%, the RBA (Estrogen receptor beta [2]) was 0.18% and the Activity (Estrogen receptor beta [3]) was 83%. For the same compound, the RBA [4] was 0.998% and the EC50 (Estrogen receptor) was 27 nM.

`Cc1cc(O)ccc1C1=C(c2ccc(O)cc2C)[C@H]2[C@@H](S(=O)(=O)Oc3ccc(O)cc3)C[C@@H]1[S+]2[O-]` (relative stereo) gave an Activity [1] of 58%, an RBA (Estrogen receptor beta [2]) of 0.812% and an Activity (Estrogen receptor beta [3]) of 82%. The RBA [4] was 2.21% and the EC50 (Estrogen receptor) was 9.2 nM.

Compound `Cc1cc(C2=C(c3ccc(O)c(C)c3)[C@H]3[C@@H](S(=O)(=O)Oc4ccccc4)C[C@@H]2[S+]3[O-])ccc1O` (relative stereo) has an Activity [1] of 65%, an RBA (Estrogen receptor beta [2]) of 0.014% and an Activity (Estrogen receptor beta [3]) of 3.8%. It also gave an RBA [4] of 3.49% and an EC50 (Estrogen receptor) of 12 nM.

In the case of `COc1ccc(OS(=O)(=O)[C@H]2C[C@H]3C(c4ccc(O)c(C)c4)=C(c4ccc(O)c(C)c4)[C@@H]2[S+]3[O-])cc1` (relative stereo), the Activity [1] is reported as 57%, the RBA (Estrogen receptor beta [2]) is reported as 0.021% and the Activity (Estrogen receptor beta [3]) is reported as 9.8%. It also gave an RBA [4] of 0.31% and an EC50 (Estrogen receptor) of 11000 nM.

In the case of `Cc1cc(C2=C(c3ccc(O)c(C)c3)[C@H]3[C@@H](S(=O)(=O)Oc4ccccc4F)C[C@@H]2[S+]3[O-])ccc1O` (relative stereo), the Activity [1] is reported as 55%, the RBA (Estrogen receptor beta [2]) is reported as 0.01% and the Activity (Estrogen receptor beta [3]) is reported as 0%. For the same compound, the EC50 (Estrogen receptor) was 1300 nM.

In the case of `Cc1cc(C2=C(c3ccc(O)c(C)c3)[C@H]3[C@@H](S(=O)(=O)Oc4ccccc4Cl)C[C@@H]2[S+]3[O-])ccc1O` (relative stereo), the Activity [1] is reported as 72%, the RBA (Estrogen receptor beta [2]) is reported as 0.022% and the Activity (Estrogen receptor beta [3]) is reported as 0%. The RBA [4] was 1.18% and the EC50 (Estrogen receptor) was 2000 nM.

With `Cc1cc(C2=C(c3ccc(O)c(C)c3)[C@H]3[C@@H](S(=O)(=O)Oc4ccccc4Br)C[C@@H]2[S+]3[O-])ccc1O` (relative stereo) the Activity [1] was 51%, the RBA (Estrogen receptor beta [2]) was 0.014% and the Activity (Estrogen receptor beta [3]) was 0%. The RBA [4] was 0.516% and the EC50 (Estrogen receptor) was 1200 nM.

Work on `Cc1ccc(C2=C(c3ccc(C)cc3)[C@H]3[C@@H](S(=O)(=O)Oc4ccc(O)cc4)C[C@@H]2[S+]3[O-])cc1` (relative stereo) yielded an Activity [1] of 24%, an RBA (Estrogen receptor beta [2]) of 0.011% and an Activity (Estrogen receptor beta [3]) of 10%. The RBA [4] was 0.005% and the EC50 (Estrogen receptor) was 5500 nM.

`COc1ccc(OS(=O)(=O)[C@H]2C[C@H]3C(c4ccc(O)cc4)=C(c4ccc(O)cc4)[C@@H]2[S+]3[O-])cc1` (relative stereo) was tested, and the Activity [1] was 48%, the RBA (Estrogen receptor beta [2]) was 0.08% and the Activity (Estrogen receptor beta [3]) was 19%. For the same compound, the RBA [4] was 0.074%.

Compound `Cc1cc(C2=C(c3ccc(O)c(C)c3)[C@H]3[C@@H](S(=O)(=O)Oc4ccc(O)cc4)C[C@@H]2[S+]3[O-])ccc1O` (relative stereo) has an RBA (Estrogen receptor beta [2]) of 0.009% and an RBA [4] of 0.109%.

`Cc1cc(O)ccc1C1=C(c2ccc(O)cc2C)[C@H]2[C@@H](S(=O)(=O)Oc3cccc(Cl)c3)C[C@@H]1[S+]2[O-]` (relative stereo) showed an RBA (Estrogen receptor beta [2]) of 0.088% and an RBA [4] of 1.3%.

In the case of `O=S(=O)(Oc1ccc(O)cc1)[C@H]1C[C@H]2C(c3ccccc3)=C(c3ccccc3)[C@@H]1[S+]2[O-]` (relative stereo), the Activity [1] is reported as 22%, the RBA (Estrogen receptor beta [2]) is reported as 0.008% and the Activity (Estrogen receptor beta [3]) is reported as 0%. The RBA [4] was 0.005%.
